Columns and labels:
[1] = tested on: S. aureus DSM 20231; assay: Bliss interaction score (quartile over a dose matrix) (fitness difference); higher = more antagonism (negative = synergy)
How it was run: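 OD595 was read at entry into stationary phase and expressed relative to the robust mean of the no-drug wells on the same plate, capped at 1. The resulting ratio is the fitness value. The Bliss score, observed fitness minus product-based expected fitness with single-drug fitness inferred from combinations, is summarised by quartiles over technical, biological and donor/recipient replicates.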

[2] = tested on: S. aureus DSM 20231; assay: fitness (endpoint OD595 vs no drug) (fraction); higher = more growth
How it was run: (§1)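 Plates with 384 wells were inoculated at OD595 0.01 using 30 µl of TSB, LB Lennox or CY, or 55 µl for S. pneumoniae. Incubation was at 37 °C, with OD595 measured every 30 min for 14 h. Fitness is the stationary-phase transition optical density over the robust mean of no-drug control wells, after first-reading background subtraction; it is capped at 1.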

[3] = tested on: S. aureus Newman; assay: as above
How it was run: as §1

[4] = tested on: S. pneumoniae D39V; assay: as above
How it was run: as §1

[5] = first compound 0.0156 µg/mL, partner 0.15 µg/mL
[6] = first compound 0.0156 µg/mL, partner 0.3 µg/mL
[7] = first compound 0.0156 µg/mL, partner 0.6 µg/mL
[8] = first compound 0.0312 µg/mL, partner 0.15 µg/mL
[9] = first compound 0.0312 µg/mL, partner 0.3 µg/mL
[10] = first compound 0.0312 µg/mL, partner 0.6 µg/mL
[11] = first compound 0.0625 µg/mL, partner 0.15 µg/mL
[12] = first compound 0.0625 µg/mL, partner 0.3 µg/mL
[13] = first compound 0.0625 µg/mL, partner 0.6 µg/mL
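Throughout, for Bliss interaction score (quartile over a dose matrix): first quartile when negative (synergy) and third quartile when positive (antagonism).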

C=C1/C(=C\C=C2/CCC[C@]3(C)[C@@H]([C@H](C)CCCC(C)C)CC[C@@H]23)C[C@@H](O)C[C@@H]1O [Alfacalcidol] + O=C1CN(/N=C/c2ccc([N+](=O)[O-])o2)C(=O)N1 [Nitrofurantoin]
Bliss interaction score [1]: 0.185

CC[C@H](C)[C@H](N)C1=N[C@H](C(=O)N[C@@H](CC(C)C)C(=O)N[C@H](CCC(=O)O)C(=O)N[C@H](C(=O)N[C@H]2CCCCNC(=O)[C@H](CC(N)=O)NC(=O)[C@@H](CC(=O)O)NC(=O)[C@H](Cc3cnc[nH]3)NC(=O)[C@@H](Cc3ccccc3)NC(=O)[C@H]([C@@H](C)CC)NC(=O)[C@@H](CCCN)NC2=O)[C@@H](C)CC)CS1 [Bacitracin] + CCCSc1nc(N[C@@H]2C[C@H]2c2ccc(F)c(F)c2)c2nnn([C@@H]3C[C@H](OCCO)[C@@H](O)[C@H]3O)c2n1 [Ticagrelor]
Bliss interaction score ([1]; main component drawn): -0.27

CC[C@H](C)[C@H](N)C1=N[C@H](C(=O)N[C@@H](CC(C)C)C(=O)N[C@H](CCC(=O)O)C(=O)N[C@H](C(=O)N[C@H]2CCCCNC(=O)[C@H](CC(N)=O)NC(=O)[C@@H](CC(=O)O)NC(=O)[C@H](Cc3cnc[nH]3)NC(=O)[C@@H](Cc3ccccc3)NC(=O)[C@H]([C@@H](C)CC)NC(=O)[C@@H](CCCN)NC2=O)[C@@H](C)CC)CS1 [Bacitracin] + C[C@H]1C[C@@H]2[C@H]([C@@H](O)C[C@@]3(C)[C@H]2CC[C@]3(O)C(=O)CO)[C@@]2(C)C=CC(=O)C=C12 [Methylprednisolone]
Bliss interaction score ([1]; main component drawn): -0.282

O=c1[nH]cc(F)c(=O)[nH]1 [Fluorouracil] + CN(C)C(=O)C(CCN1CCC(O)(c2ccc(Cl)cc2)CC1)(c1ccccc1)c1ccccc1 [Loperamide]
Bliss interaction score [1]: 0.195

O=c1[nH]cc(F)c(=O)[nH]1 [Fluorouracil] + CN[C@@H]1[C@H](O[C@H]2[C@H](O[C@H]3[C@H](O)[C@@H](O)[C@H](N=C(N)N)[C@@H](O)[C@@H]3N=C(N)N)O[C@@H](C)[C@]2(O)C=O)O[C@@H](CO)[C@H](O)[C@H]1O [Streptomycin]
Bliss interaction score [1]: -0.184

O=c1[nH]cc(F)c(=O)[nH]1 [Fluorouracil] + O=C1CN(/N=C/c2ccc([N+](=O)[O-])o2)C(=O)N1 [Nitrofurantoin]
Bliss interaction score [1]: -0.206

CC[C@H](c1ccc(O)cc1)[C@@H](CC)c1ccc(O)cc1 [Hexestrol] + CN(C)C(=O)C(CCN1CCC(O)(c2ccc(Cl)cc2)CC1)(c1ccccc1)c1ccccc1 [Loperamide]
Bliss interaction score [1]: -0.456

CC[C@H](c1ccc(O)cc1)[C@@H](CC)c1ccc(O)cc1 [Hexestrol] + CO[C@@]12[C@H](COC(N)=O)C3=C(C(=O)C(C)=C(N)C3=O)N1C[C@@H]1N[C@@H]12 [MitomycinC]
Bliss interaction score [1]: -0.248

CC(C)Cc1ccc(C(C)C(=O)O)cc1 (centres undefined) [Ibuprofen] + C/C(=C\C(=O)OCCCCCCCCC(=O)O)C[C@@H]1OC[C@H](C[C@@H]2O[C@H]2[C@@H](C)[C@H](C)O)[C@@H](O)[C@H]1O [Pseudomonic acid]
Bliss interaction score [1]: 0.169

CC(C)Cc1ccc(C(C)C(=O)O)cc1 (centres undefined) [Ibuprofen] + COc1cc(Cc2cnc(N)nc2N)cc(OC)c1OC [Trimethoprim]
Bliss interaction score [1]: -0.145

CC(=O)NC[C@H]1CN(c2ccc(N3CCOCC3)c(F)c2)C(=O)O1 [Linezolid] + COc1ccc2[nH]c([S+]([O-])Cc3ncc(C)c(OC)c3C)nc2c1 [Omeprazole]
Bliss interaction score [1]: 0.192

CN(Cc1cnc2nc(N)nc(N)c2n1)c1ccc(C(=O)N[C@@H](CCC(=O)O)C(=O)O)cc1 [Methotrexate] + CC1(C)S[C@@H]2[C@H](NC(=O)Cc3ccccc3)C(=O)N2[C@H]1C(=O)O [PenicillinG]
Bliss interaction score [1]: -0.169

CN(Cc1cnc2nc(N)nc(N)c2n1)c1ccc(C(=O)N[C@@H](CCC(=O)O)C(=O)O)cc1 [Methotrexate] + COc1cc(Cc2cnc(N)nc2N)cc(OC)c1OC [Trimethoprim]
Bliss interaction score [1]: -0.242

CO[C@@]12[C@H](COC(N)=O)C3=C(C(=O)C(C)=C(N)C3=O)N1C[C@@H]1N[C@@H]12 [Mitomycin C] + CN(N=O)C(=O)N[C@@H](C=O)[C@@H](O)[C@H](O)[C@H](O)CO [Streptozotocin]
fitness [2, 5]: 0.706
fitness [2, 6]: 0.633
fitness [2, 7]: 0.571
fitness [2, 8]: 0.656
fitness [2, 9]: 0.645
fitness [2, 10]: 0.56
fitness [2, 11]: 0.541
fitness [2, 12]: 0.51
fitness [2, 13]: 0.433
fitness [3, 5]: 0.654
fitness [3, 6]: 0.615
fitness [3, 7]: 0.462
fitness [3, 8]: 0.578
fitness [3, 9]: 0.548
fitness [3, 10]: 0.381
fitness [3, 11]: 0.433
fitness [3, 12]: 0.379
fitness [3, 13]: 0.185
fitness ([4]; first compound 0.001075 µg/mL, partner 1.2 µg/mL): 0.899
fitness ([4]; first compound 0.001075 µg/mL, partner 2.4 µg/mL): 0.911
fitness ([4]; first compound 0.001075 µg/mL, partner 4.8 µg/mL): 0.915
fitness ([4]; first compound 0.002 µg/mL, partner 1.2 µg/mL, one replicate): 0.815
fitness ([4]; first compound 0.002 µg/mL, partner 2.4 µg/mL, one replicate): 0.796
fitness ([4]; first compound 0.002 µg/mL, partner 4.8 µg/mL, one replicate): 0.653
fitness ([4]; first compound 0.00215 µg/mL, partner 1.2 µg/mL): 0.84
fitness ([4]; first compound 0.00215 µg/mL, partner 2.4 µg/mL): 0.886
fitness ([4]; first compound 0.00215 µg/mL, partner 4.8 µg/mL): 0.848
fitness ([4]; first compound 0.004 µg/mL, partner 1.2 µg/mL, one replicate): 0.769
fitness ([4]; first compound 0.004 µg/mL, partner 2.4 µg/mL, one replicate): 0.739
fitness ([4]; first compound 0.004 µg/mL, partner 4.8 µg/mL, one replicate): 0.597
fitness ([4]; first compound 0.0043 µg/mL, partner 1.2 µg/mL): 0.74
fitness ([4]; first compound 0.0043 µg/mL, partner 2.4 µg/mL): 0.777
fitness ([4]; first compound 0.0043 µg/mL, partner 4.8 µg/mL): 0.603
fitness ([4]; first compound 0.008 µg/mL, partner 1.2 µg/mL, one replicate): 0.525
fitness ([4]; first compound 0.008 µg/mL, partner 2.4 µg/mL, one replicate): 0.588
fitness ([4]; first compound 0.008 µg/mL, partner 4.8 µg/mL, one replicate): 0.347
